Tests used:
Assay in all cases: relative viability (nuclei count vs DMSO), 5 days (fraction); higher = more cells survive
Apatinib + Pemetrexed = compound: N#CC1(c2ccc(NC(=O)c3cccnc3NCc3ccncc3)cc2)CCCC1 [Apatinib] + Nc1nc2[nH]cc(CCc3ccc(C(=O)N[C@@H](CCC(=O)O)C(=O)O)cc3)c2c(=O)[nH]1 [Pemetrexed] (partner 0.2 µM)
Summary of the method: (§1)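 The day after seeding in 1536-well plates, lung cancer cell lines were treated by pin tool with a single drug, or with a fixed anchor-drug dose together with five library-drug doses (not always all listed) in √10 steps. After 5 days, a combined fix-and-stain solution (final 0.05% Triton X-100, 1% formaldehyde, 1 ug/ml Hoechst) was added. Nuclei counted on 4× images gave relative viability as treated counts over vehicle counts, reported as the median of duplicate plates.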

Metformin + OSI-027 = compound: CN(C)C(=N)NC(=N)N [Metformin] + COc1cccc2cc(-c3nc([C@H]4CC[C@H](C(=O)O)CC4)n4ncnc(N)c34)[nH]c12 [OSI-027] (partner 0.5 µM)
Summary of the method: as §1

Apatinib = compound: N#CC1(c2ccc(NC(=O)c3cccnc3NCc3ccncc3)cc2)CCCC1 [Apatinib]
Summary of the method: (§2)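 Lung cancer cell lines in 1536-well plates were exposed by pinning to five library-drug doses (not always all listed) √10 apart, following an overnight hold at 37 °C. MetaXpress counted Hoechst-stained nuclei from 4× images taken after 5 days without medium change. Viability is the median ratio of treated-well to vehicle-well nuclei across plates. Plates required control CV below 25% and at least one doubling.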

Metformin = compound: CN(C)C(=N)NC(=N)N [Metformin]
Summary of the method: as §2

Cell Line | relative viability (Apatinib + Pemetrexed; first compound 0.08 µM) | relative viability (Apatinib + Pemetrexed; first compound 0.253 µM) | relative viability (Apatinib + Pemetrexed; first compound 0.8 µM) | relative viability (Apatinib + Pemetrexed; first compound 8 µM) | relative viability (Metformin + OSI-027; first compound 31.62 µM) | relative viability (Metformin + OSI-027; first compound 100 µM) | relative viability (Metformin + OSI-027; first compound 316.23 µM) | relative viability (Metformin + OSI-027; first compound 1000 µM) | relative viability (Apatinib; 0.08 µM) | relative viability (Apatinib; 0.253 µM) | relative viability (Apatinib; 0.8 µM) | relative viability (Apatinib; 2.53 µM) | relative viability (Apatinib; 8 µM) | relative viability (Metformin; 10 µM) | relative viability (Metformin; 31.62 µM) | relative viability (Metformin; 100 µM) | relative viability (Metformin; 316.23 µM) | relative viability (Metformin; 1000 µM) | relative viability (Apatinib + Pemetrexed; first compound 2.53 µM) | relative viability (Metformin + OSI-027; first compound 10 µM)
HARA | 0.246 | 0.227 | 0.21 | 0.173 | 0.6 | 0.529 | 0.47 | 0.515 | 1.33 | 0.93 | 1 | 0.742 | 1.04 | 1.12 | 1.26 | 1.13 | 1.06 | 1.13 | – | –
NCI-H1792 | 0.984 | 0.722 | 0.993 | 0.447 | 0.91 | 0.909 | 0.697 | 0.678 | 0.884 | 0.883 | 0.887 | 0.863 | 0.725 | 0.901 | 0.969 | 1.06 | 1.01 | 1.05 | 0.558 | –
HCC-366 | 0.192 | 0.159 | 0.129 | 0.0888 | 0.967 | 0.991 | 0.808 | 1.28 | 1.03 | 1 | 1.02 | 0.97 | 0.988 | 0.926 | 1.06 | 1.02 | 0.964 | 1.03 | 0.121 | 0.757
NCI-H2342 | 0.731 | 0.73 | 0.744 | 0.737 | 0.617 | 0.55 | 0.549 | 0.568 | 0.899 | 0.909 | 0.998 | 0.929 | 0.941 | 0.665 | 1.03 | 1.04 | 0.935 | 1.07 | 0.733 | 0.538
HCC-827 | 0.254 | 0.25 | 0.247 | 0.258 | 0.714 | 0.704 | 0.586 | 0.73 | 1.02 | 1.02 | 0.96 | 0.976 | 1.02 | – | 0.988 | 0.993 | 0.967 | 0.997 | 0.231 | –
NCI-H1648 | 0.681 | 0.613 | 0.706 | 0.691 | 0.264 | 0.264 | 0.285 | 0.279 | 1.18 | 0.735 | 0.722 | 0.591 | 0.498 | 0.937 | 1.11 | 1.28 | 1.08 | 1.16 | 0.548 | 0.24
NCI-H2126 | 0.741 | 0.674 | 0.736 | 0.641 | 0.725 | 0.8 | 0.787 | 0.656 | 0.975 | 0.904 | 0.969 | 0.918 | 1.02 | 0.905 | 0.992 | 0.981 | 0.932 | 1.03 | 0.671 | 0.682
LK-2 | 0.255 | 0.243 | 0.255 | 0.134 | 0.169 | 0.199 | 0.195 | 0.209 | 0.978 | 0.976 | 0.973 | 0.856 | 0.634 | 1.22 | 1.28 | 1.22 | 1.07 | 1.32 | 0.181 | 0.194

Source: the supplement of paper PMC10307832
